According to ChEMBL document CHEMBL5137050, “Hematopoietic Progenitor Kinase 1 in Tumor Immunology: A Medicinal Chemistry Perspective” (J Med Chem, 2022):

Tests used:
[1] = target: Tyrosine-protein kinase Lck (Homo sapiens, UniProt P06239); assay: Inhibition of LCK (unknown origin)
[2] = target: T1, Tyrosine-protein kinase ZAP-70 (Homo sapiens, UniProt P43403); assay: Inhibition of ZAP70 (unknown origin)
T1 sequence (P43403 whole entry): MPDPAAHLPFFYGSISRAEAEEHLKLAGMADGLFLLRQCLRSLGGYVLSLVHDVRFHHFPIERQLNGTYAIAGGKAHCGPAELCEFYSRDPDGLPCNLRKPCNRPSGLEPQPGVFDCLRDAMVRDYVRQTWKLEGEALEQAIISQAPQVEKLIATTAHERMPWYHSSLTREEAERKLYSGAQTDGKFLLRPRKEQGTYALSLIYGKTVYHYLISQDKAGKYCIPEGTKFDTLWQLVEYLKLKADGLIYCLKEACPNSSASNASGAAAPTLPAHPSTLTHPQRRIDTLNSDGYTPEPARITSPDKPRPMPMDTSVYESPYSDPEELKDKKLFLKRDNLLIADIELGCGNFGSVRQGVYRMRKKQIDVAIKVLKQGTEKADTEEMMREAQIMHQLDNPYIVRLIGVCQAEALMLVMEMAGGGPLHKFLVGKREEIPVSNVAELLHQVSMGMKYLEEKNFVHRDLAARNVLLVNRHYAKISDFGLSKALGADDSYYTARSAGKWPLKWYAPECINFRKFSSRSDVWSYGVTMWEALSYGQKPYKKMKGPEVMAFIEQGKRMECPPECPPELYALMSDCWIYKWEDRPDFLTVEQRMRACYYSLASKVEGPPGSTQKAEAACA

[3] = target: T2, Mitogen-activated protein kinase kinase kinase kinase 1 (Homo sapiens, UniProt Q92918); assay: Inhibition of full-length phosphorylated HPK1 (unknown origin)
[4] = target: T3, Tyrosine-protein kinase ITK/TSK (Homo sapiens, UniProt Q08881); assay: Inhibition of ITK (unknown origin)
T3 sequence (Q08881 whole entry): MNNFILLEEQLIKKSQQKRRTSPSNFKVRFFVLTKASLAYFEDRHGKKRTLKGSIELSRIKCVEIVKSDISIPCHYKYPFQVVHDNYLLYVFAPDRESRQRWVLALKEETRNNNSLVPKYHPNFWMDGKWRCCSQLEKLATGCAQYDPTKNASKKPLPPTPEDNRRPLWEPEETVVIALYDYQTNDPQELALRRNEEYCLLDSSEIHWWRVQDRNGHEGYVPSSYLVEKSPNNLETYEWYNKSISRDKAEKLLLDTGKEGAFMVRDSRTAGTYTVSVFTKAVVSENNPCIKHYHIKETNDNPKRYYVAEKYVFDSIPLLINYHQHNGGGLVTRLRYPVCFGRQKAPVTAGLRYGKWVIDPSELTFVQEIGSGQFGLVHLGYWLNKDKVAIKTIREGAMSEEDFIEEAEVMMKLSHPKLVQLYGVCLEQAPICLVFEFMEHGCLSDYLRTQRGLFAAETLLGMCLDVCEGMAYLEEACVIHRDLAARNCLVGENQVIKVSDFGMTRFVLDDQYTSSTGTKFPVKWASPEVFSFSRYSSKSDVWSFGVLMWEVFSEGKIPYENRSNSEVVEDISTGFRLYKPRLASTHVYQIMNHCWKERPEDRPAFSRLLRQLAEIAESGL

[5] = target: T2, Mitogen-activated protein kinase kinase kinase kinase 1; assay: Inhibition of full-length unphosphorylated HPK1 (unknown origin) by scintillation proximity assay
[6] = target: T2, Mitogen-activated protein kinase kinase kinase kinase 1; assay: Inhibition of HPK1 in human Jurkat E6.1 cells assessed as inhibition of SLP76 phosphorylation treated for 4 hrs by HTRF assay; assay type: cell-based
[7] = target: T2, Mitogen-activated protein kinase kinase kinase kinase 1; assay: Inhibition of HPK1 (unknown origin) preincubated for 15 mins measured after 90 mins by ADP-Glo kinase assay

T2 sequence (Q92918 whole entry): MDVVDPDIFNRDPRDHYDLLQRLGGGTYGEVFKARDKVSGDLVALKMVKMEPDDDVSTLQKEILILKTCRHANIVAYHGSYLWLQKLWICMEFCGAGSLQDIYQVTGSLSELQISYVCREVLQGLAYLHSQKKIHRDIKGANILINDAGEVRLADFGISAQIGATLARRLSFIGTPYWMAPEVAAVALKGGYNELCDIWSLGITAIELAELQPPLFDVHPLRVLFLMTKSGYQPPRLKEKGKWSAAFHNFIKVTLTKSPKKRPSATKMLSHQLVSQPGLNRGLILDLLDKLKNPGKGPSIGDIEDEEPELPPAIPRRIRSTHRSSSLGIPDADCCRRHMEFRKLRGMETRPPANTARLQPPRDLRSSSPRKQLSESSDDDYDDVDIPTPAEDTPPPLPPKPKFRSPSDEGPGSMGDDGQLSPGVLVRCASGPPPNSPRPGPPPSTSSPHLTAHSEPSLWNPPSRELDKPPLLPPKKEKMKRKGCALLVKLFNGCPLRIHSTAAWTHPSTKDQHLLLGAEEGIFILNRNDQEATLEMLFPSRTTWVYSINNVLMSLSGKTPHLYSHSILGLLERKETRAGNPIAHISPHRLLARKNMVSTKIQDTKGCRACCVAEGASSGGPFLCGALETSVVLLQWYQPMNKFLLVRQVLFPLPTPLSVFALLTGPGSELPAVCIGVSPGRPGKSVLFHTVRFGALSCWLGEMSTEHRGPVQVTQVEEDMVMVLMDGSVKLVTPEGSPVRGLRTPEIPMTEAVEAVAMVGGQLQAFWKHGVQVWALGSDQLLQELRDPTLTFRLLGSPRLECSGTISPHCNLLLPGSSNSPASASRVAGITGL
Sequence of Tyrosine-protein kinase Lck (P06239 whole entry): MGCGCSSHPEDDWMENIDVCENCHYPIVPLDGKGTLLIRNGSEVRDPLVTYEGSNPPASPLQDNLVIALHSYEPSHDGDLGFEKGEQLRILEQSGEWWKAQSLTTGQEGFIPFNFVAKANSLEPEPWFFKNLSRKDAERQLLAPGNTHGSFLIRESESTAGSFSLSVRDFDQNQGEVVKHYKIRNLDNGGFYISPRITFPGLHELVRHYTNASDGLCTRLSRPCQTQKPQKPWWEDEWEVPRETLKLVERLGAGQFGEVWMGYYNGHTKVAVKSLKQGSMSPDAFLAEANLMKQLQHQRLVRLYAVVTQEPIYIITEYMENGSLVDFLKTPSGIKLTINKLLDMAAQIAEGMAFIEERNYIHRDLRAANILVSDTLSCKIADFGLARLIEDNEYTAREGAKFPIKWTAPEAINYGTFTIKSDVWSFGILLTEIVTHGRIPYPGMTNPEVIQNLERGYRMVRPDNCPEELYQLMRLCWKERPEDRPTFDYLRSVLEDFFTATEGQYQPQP

Row | IC50 [1] | IC50 [2] | IC50 [3] | IC50 [4] | IC50 [5] | IC50 [6] | IC50 [7] | SMILES
1 | > 49.5 µM | > 49.5 µM | 29 µM | > 49.5 µM | 1.2 µM | – | – | Cc1[nH]c2nnc(C)n2c(=O)c1CC(=O)Nc1ncc(Cc2ccccc2F)s1
2 | – | – | – | – | – | < 1 µM | < 0.1 µM | CN1CCC(c2ncc(-c3cnc(N)c(OCc4cccc(C#CC(C)(C)O)c4)c3)s2)CC1
